Experiments:
Type in all cases: binding
panel of 442 kinases [1] = target: T1, panel of 442 kinases (Homo sapiens, UniProt Q9NYL2); conditions: kinase ZAK; compound concentration 10 µM
T1 construct: purchased KINOMEscan
Excerpt: (§1) We assessed the selectivity of members of this scaffold using the KINOMEscan methodology across a near comprehensive panel of 442 kinases [[18,27]].

panel of 442 kinases [2] = target: T2, panel of 442 kinases (Homo sapiens, UniProt P53355); conditions: Compound Concentration 10 µM
T2 construct: purchased KINOMEscan
Excerpt: as §1

panel of 442 kinases [3] = target: T3, panel of 442 kinases (Homo sapiens, UniProt P20794); conditions: Compound Concentration 10 µM
T3 construct: purchased KINOMEscan
T3 sequence (P20794 1-623): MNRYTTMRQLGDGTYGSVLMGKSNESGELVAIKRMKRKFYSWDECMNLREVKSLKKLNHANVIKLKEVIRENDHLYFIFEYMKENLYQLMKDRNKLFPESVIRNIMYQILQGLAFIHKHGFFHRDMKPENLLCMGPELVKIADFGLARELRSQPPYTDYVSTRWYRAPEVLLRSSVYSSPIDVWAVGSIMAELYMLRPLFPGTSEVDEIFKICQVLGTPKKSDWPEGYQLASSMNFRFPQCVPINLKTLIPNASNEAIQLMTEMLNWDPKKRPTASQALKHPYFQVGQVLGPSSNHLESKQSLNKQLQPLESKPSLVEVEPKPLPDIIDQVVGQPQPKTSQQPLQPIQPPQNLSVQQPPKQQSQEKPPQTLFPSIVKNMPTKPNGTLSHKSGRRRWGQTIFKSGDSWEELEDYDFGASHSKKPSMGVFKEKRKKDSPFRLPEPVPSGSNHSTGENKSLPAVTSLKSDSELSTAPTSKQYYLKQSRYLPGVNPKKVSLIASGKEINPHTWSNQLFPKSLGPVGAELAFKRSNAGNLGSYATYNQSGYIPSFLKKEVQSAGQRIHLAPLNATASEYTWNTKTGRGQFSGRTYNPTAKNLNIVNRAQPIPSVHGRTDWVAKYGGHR
Excerpt: as §1

T2 sequence (P53355 whole entry): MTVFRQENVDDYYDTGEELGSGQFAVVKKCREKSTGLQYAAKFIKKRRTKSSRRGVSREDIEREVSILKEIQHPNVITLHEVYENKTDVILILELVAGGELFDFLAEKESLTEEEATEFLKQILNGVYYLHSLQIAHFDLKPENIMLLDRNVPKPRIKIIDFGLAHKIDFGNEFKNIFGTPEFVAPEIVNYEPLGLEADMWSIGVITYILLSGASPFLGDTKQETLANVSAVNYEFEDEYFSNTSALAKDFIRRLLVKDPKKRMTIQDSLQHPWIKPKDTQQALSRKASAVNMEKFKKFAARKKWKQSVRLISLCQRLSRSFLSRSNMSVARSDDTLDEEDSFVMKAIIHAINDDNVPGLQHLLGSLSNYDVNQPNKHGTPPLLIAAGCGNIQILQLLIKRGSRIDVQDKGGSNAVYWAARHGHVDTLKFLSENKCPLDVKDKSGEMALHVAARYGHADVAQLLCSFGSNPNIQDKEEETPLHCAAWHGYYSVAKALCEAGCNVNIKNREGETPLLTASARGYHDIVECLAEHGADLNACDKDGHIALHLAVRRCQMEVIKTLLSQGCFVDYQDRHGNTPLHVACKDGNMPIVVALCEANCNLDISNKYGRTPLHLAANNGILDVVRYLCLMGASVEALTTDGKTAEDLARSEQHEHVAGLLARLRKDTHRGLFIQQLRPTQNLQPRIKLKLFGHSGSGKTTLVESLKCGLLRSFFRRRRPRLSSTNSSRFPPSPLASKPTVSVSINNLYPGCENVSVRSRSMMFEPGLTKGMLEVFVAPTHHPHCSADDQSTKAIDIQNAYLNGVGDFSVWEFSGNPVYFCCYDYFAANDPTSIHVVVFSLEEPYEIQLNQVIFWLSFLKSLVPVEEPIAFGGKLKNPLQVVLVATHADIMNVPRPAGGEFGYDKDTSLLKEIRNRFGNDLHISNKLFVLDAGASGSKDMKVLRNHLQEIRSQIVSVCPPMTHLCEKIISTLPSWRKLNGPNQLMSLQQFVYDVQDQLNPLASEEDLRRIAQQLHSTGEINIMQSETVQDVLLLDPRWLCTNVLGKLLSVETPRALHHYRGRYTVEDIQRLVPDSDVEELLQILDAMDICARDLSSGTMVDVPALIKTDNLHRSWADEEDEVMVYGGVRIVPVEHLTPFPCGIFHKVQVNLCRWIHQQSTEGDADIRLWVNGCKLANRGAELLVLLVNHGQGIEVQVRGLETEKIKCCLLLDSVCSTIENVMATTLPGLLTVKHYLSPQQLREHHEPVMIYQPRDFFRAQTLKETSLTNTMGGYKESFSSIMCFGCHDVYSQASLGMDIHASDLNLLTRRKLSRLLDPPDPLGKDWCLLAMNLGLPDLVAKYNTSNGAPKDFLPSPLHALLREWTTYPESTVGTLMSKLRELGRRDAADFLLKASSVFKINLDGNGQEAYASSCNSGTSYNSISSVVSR
T1 sequence (Q9NYL2 whole entry): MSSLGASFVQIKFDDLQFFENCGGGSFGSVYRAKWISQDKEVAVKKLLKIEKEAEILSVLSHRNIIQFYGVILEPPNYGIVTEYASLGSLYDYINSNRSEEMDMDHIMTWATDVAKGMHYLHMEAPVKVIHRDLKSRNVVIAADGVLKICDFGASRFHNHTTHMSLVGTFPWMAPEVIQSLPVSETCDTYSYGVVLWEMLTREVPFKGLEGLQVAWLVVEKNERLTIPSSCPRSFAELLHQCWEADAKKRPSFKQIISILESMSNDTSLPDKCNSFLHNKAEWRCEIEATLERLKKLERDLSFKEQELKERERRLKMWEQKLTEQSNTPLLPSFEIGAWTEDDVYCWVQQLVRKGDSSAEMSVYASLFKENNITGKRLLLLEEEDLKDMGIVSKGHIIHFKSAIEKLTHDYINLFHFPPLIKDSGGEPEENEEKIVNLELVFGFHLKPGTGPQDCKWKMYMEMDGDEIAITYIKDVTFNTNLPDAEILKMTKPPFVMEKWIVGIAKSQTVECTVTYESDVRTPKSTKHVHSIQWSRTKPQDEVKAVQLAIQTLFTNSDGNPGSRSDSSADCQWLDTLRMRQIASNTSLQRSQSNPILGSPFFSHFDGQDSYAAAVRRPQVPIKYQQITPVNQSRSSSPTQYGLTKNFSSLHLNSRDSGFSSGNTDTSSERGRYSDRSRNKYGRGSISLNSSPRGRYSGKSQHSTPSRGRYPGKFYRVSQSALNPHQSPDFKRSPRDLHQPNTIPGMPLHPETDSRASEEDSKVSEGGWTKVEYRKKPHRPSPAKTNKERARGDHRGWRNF

Structure (SMILES)	% Ctrl, ZAK (panel of 442 kinases [1]) [% Ctrl]	KINOMEscan: DAPK1 (panel of 442 kinases [2])	KINOMEscan: MAK (panel of 442 kinases [3])
COc1cc(C(=O)N2CCC(N3CCN(C)CC3)CC2)ccc1Nc1ncc2c(n1)N(C1CCCC1)c1ccccc1C(=O)N2C [Compound 25, 11-cyclopentyl-2-((2-methoxy-4-(4-(4-methylpiperazin-1-yl)piperidine-1-carbonyl)phenyl)amino)-5-methyl-5H-benzo[e]pyrimido[5,4-b][1,4]diazepin-6(11H)-one]	100	77	100
COc1cc(C(=O)N2CCC(N3CCN(C)CC3)CC2)ccc1Nc1ncc2c(n1)N1CCc3cccc(c31)C(=O)N2C [Compound 24]	88	19	100
COc1cc(C(=O)N2CCC(N3CCN(C)CC3)CC2)ccc1Nc1ncc2c(n1)N(C)c1ccccc1C(=O)N2C [15 (LRRK2-IN-1)]	99	73	72
CCOc1cc(C(=O)N2CCC(N3CCN(C)CC3)CC2)ccc1Nc1ncc2c(n1)N(C1CCCC1)c1ccccc1C(=O)N2C [Compound 26]	100	100	100
